Results taken from US9538749B2, “Methods for increasing oil palm yield” (Valent BioSciences Corporation, priority 2014, dated 2017).
Several values for one entry are separate records, joined by “and”; a condition that tells them apart may be missing. Equal values may be shown once.

Columns and labels:
[1] = tested on: oil palm fruit; test: Field study of fruit abscission (cumulative loose fruit and loose mass) after a single bunch-directed preharvest spray; type: in vivo, oil palm (cross between Compact and Ghana); details: for Cumulative Loose Mass / % Difference with UTC (Cumulative Loose Fruit) / % Difference with UTC (Cumulative Loose Mass) / Cumulative Loose Fruit: single spray 100 mL/bunch; for Cumulative Loose Mass / % Difference with UTC (Cumulative Loose Fruit) / % Difference with UTC (Cumulative Loose Mass): 14 days; for % Difference with UTC (Cumulative Loose Fruit) / % Difference with UTC (Cumulative Loose Mass): vs untreated control; for Cumulative Loose Fruit: counted for 14 days
Protocol: A study was conducted in a plantation in Costa Rica to compare the effects of single bunch-directed applications of: (1) untreated control (water sprayed); (2) AVG at 500 ppm (59.5 g) active ingredient (a.i.); (3) 20 ppm (2.4 g) a.i. of 1-MCP; (4) 67 ppm (8.0 g) a.i. of 1-MCP; and (5) 200 ppm (23.8 g) a.i. of 1-MCP. Total g a.i./ha for each treatment was calculated assuming 7 bunches per palm and 170 palms per ha. In this study, AVG and 1-MCP were provided in a formulation as AVG-HC1 and 1-MCP at concentrations of 20% and 1.3%, respectively.
For each treatment, 27 palms were randomly selected covering about 15 hectares. The variety of plants used was a cross between Compact and Ghana. The plants were three years old at the time of treatment. A CO2 sprayer was used to spray all treatments (100 mL/bunch) to bunches with 1 to 4 loose fruits. The time required to spray each bunch was about 8 seconds at 20 psi using a 2.0 full cone nozzle. The treatments were applied once per bunch. Four, six, four, three and ten bunches per treatment were sprayed on Feb. 6, 13, 20, 27 and Mar. 3, 2015, respectively.
Cumulative loose fruit (CLF) and cumulative loose mass (CLM) counts were determined on a daily basis for 14 days with the exception of days 2 and 9 after initial spray as measure to objectively quantify fruit abscission. An electronic balance was used to weigh all fruit. All loose fruit on the bunch, branches and on the ground was counted and weighted.

[2] = tested on: oil palm fruit; details: postharvest application; cited from earlier work
[3] = tested on: oil palm fruit; details: preharvest application to attached bunches; cited from earlier work

Row | Structure (SMILES) | Cumulative Loose Mass ([1]; 20 ppm (2.4 g a.i./ha)) | % Difference with UTC (Cumulative Loose Fruit) ([1]; 20 ppm (2.4 g a.i./ha)) | % Difference with UTC (Cumulative Loose Mass) ([1]; 20 ppm (2.4 g a.i./ha)) | Cumulative Loose Fruit ([1]; 20 ppm (2.4 g a.i./ha)) | Cumulative Loose Mass ([1]; 67 ppm (8.0 g a.i./ha)) | % Difference with UTC (Cumulative Loose Fruit) ([1]; 67 ppm (8.0 g a.i./ha)) | % Difference with UTC (Cumulative Loose Mass) ([1]; 67 ppm (8.0 g a.i./ha)) | Cumulative Loose Fruit ([1]; 67 ppm (8.0 g a.i./ha)) | Cumulative Loose Mass ([1]; 200 ppm (23.8 g a.i./ha)) | % Difference with UTC (Cumulative Loose Fruit) ([1]; 200 ppm (23.8 g a.i./ha)) | % Difference with UTC (Cumulative Loose Mass) ([1]; 200 ppm (23.8 g a.i./ha)) | Cumulative Loose Fruit ([1]; 200 ppm (23.8 g a.i./ha)) | Effect on oil palm fruit drop ([1]; preharvest bunch spray, 20, 67 and 200 ppm) | Effect on oil content [2] | Effect on ripening of oil palm fruit [2] | Increase of oil content [3]
1 | CC1=CC1 [1-MCP, 1-methylcyclopropene] | 1465 g | 6.7% | 17.1% | 138.8 | 1163 g | 28.6% | 34.2% | 106.2 | 1149 g | 29.6% | 36.0% and 35.0% | 104.7 | delayed palm oil fruit drop | reduced oil content | delayed ripening | –
2 | O=P(O)(O)CCCl [ethephon, 2-chloroethyl phosphonic acid] | – | – | – | – | – | – | – | – | – | – | – | – | – | – | – | 7%
